# Test results reported in patent publication US20220288207A1, “PHOTO INDUCED CONTROL OF PROTEIN DESTRUCTION” (Beth Israel Deaconess Medical Center, Inc., priority 2019, published 2022).
# Entries after “also recorded” stand apart in the source; their conditions may differ.
# Key:
# [1] = Uncaging (photolysis) by UVA irradiation in vitro, UV-VIS absorption / UPLC-MS analysis; assay type: physicochemical; conditions: 1 mM, UVA 365 nm, time course
# Method: HPLC spectra were acquired using an Agilent 1200 Series system with DAD detector for all the intermediates and Opto-PROTACs below. Chromatography was performed on a 2.1×150 mm Zorbax 300SB-C18 5 μm column with water containing 0.1% formic acid as solvent A and acetonitrile containing 0.1% formic acid as solvent B at a flow rate of 0.4 ml/min. The gradient program was as follows: 1% B (0-1 min), 1-99% B (1-4 min), and 99% B (4-8 min). High-resolution mass spectra (FIRMS) data were acquired in positive ion mode using an Agilent G1969A API-TOF with an electrospray ionization (ESI) source. Nuclear Magnetic Resonance (NMR) spectra were acquired on a Bruker DRX-600 spectrometer with 600 MHz for proton (^1H NMR) and 151 MHz for carbon (^13C NMR); chemical shifts are reported in (δ). Preparative HPLC was performed on Agilent Prep 1200 series with UV detector set to 254 nm. Samples were injected onto a Phenomenex Luna 250×30 mm, 5 μm, C18 column at room temperature. The flow rate was 40 ml/min. A linear gradient was used with 10% of acetonitrile (A) in H2O (with 0.1% TFA) (B) to 100% of acetonitrile (A). HPLC was used to establish the purity of target compounds. All final compounds had >95% purity using the HPLC methods described above.
# (§1) UV-Vis spectrometry was performed on a NanoDrop-2000 UV-Visible Spectrophotometer. Pomalidomide, opto-pomalidomide, dBET1, opto-dBET1, dALK and opto-dALK were dissolved in DMSO and diluted to indicated concentration, followed by UVA irradiation for indicated duration of time. Then the samples were subjected to UV-Vis spectrometry analysis. Pomalidomide and opto-pomalidomide mixture solutions were made with the indicated ratio. Absorption values at 364 nm were measured to draw standard curve. dBET1 and opto-dBET1 mixture solution were made with the indicated ratios. Absorption values at 340 nm were measured to draw standard curve. dALK and opto-dALK mixture solution were made with indicated ratio. Absorption values at 370 nm were measured to draw standard curve.
# CRBN and IKZF1 = biological target: T1, CRBN and IKZF1 (Homo sapiens, UniProt Q13422+Q96SW2); assay: CRBN-IKZF1 interaction, Flag-IP and immunoblot in HEK293T cells; assay type: cell-based; conditions: 10 μM MG132 12 hours
# T1 construct: expressed in transfected cells; host or cells: HEK293T
# Method: (§2) MM.1S, MT2, C4-2, NCI-H2228 and NCI-H3122 cells were cultured in RPMI1640 containing 10% fetal bovine serum (FBS), 100 Units of penicillin and 100 μg/ml streptomycin. […] For UVA irradiation, cells were pretreated with opto-PROTACs for 2-4 hours, and then subjected to UVA irradiation for indicated durations.
# (§3) Cells were lysed in EBC lysis buffer (50 mM Tris pH 7.5, 120 mM NaCl, 0.5% NP-40), supplemented with protease inhibitors (cOmplete Mini, Roche) and phosphatase inhibitors (phosphatase inhibitor cocktail set I and II, Calbiochem). The protein concentrations of the lysates were measured using the Bio-Rad protein assay reagent on a Beckman Coulter DU-800 spectrophotometer. The lysates were then resolved by sodium dodecylsulfate-polyacrylamide gel ectrophoresis (SDS-PAGE) and immunoblotted with indicated antibodies. For immunoprecipitation, 1 mg lysates were incubated with the appropriate sepharose beads for 4 h at 4° C. Immuno-complexes were washed four times with NETN lysis buffer (20 mM Tris, pH 8.0, 100 mM NaCl, 1 mM EDTA and 0.5% NP-40) before being resolved by SDS-PAGE and immunoblotted with indicated antibodies.
# MM1S cells = assay: CCK-8 cell viability assay, MM1S cells; assay type: cell-based; conditions: MM1S cells, UVA irradiation (365 nm) 15 min
# Method: (§4) Human embryonic kidney 293T (HEK293T) cells and HEK293FT were maintained in Dulbecco's Modified Eagle's Medium (DMEM) containing 10% fetal bovine serum (FBS), 100 Units of penicillin and […] streptomycin. MM.1S, MT2, C4-2, NCI-H2228 and NCI-H3122 cells were cultured in RPMI1640 containing 10% fetal bovine serum (FBS), 100 Units of penicillin and 100 μg/ml streptomycin. 293FT^CRBN+/+, 293FT^CRBN+/+ , MM.1S^CRBN+/+ and MM.1S^CRBN−/− cells were provided Dr. William G. Kaelin (Dana-Farber Cancer Institute). For UVA irradiation, cells were pretreated with opto-PROTACs for 2-4 hours, and then subjected to UVA irradiation for indicated durations.
# (§5) Cell in 96-well plates were incubated with 10 ul/well of CCK-8 solution and incubated for 2 hours, followed by the measurement of optical density using a microplate reader with a 450 nm filter (O.D. 450).
# CRBN = biological target: T2, CRBN (Homo sapiens, UniProt Q96SW2); assay: Competitive binding in vitro pull-down assay (biotin-pomalidomide pulls down Flag-CRBN)
# T2 construct: made in house; host or cells: HEK293T
# Method: Flag-CRBN was expressed in HEK293T cells lysed in PROTAC buffer B (50 mM Tris pH 7.5, 150 mM NaCl, 0.5% NP-40) supplemented with protease inhibitors (cOmplete Mini, Roche) and phosphatase inhibitors (phosphatase inhibitor cocktail set I and II, Calbiochem). 3mg cell lysis was incubated with 10 μl 10mM biotin-pomalidomide and […] streptavidin beads for 1 h at 4° C. in the absence or presence of pomalidomide or opto-pomalidomide. Then, the beads were washed four times with NETN buffer (20 mM Tris, pH 8.0, 100 mM NaCl, 1 mM EDTA and 0.5% NP-40) before being resolved by SDS-PAGE and immunoblotted with indicated antibodies.
# IKZF1 [2] = biological target: T3, IKZF1 (Homo sapiens, UniProt Q13422+Q96SW2); assay: IKZF1 degradation, immunoblot of MT2 cells; assay type: cell-based; parameters: endogenous in cells; host or cells: MT2; conditions: with UVA irradiation
# Method: as §4
# as §3, with “Immuno-complexes were washed four times with NETN lysis buffer (20 mM Tris, pH 8.0, 100 mM NaCl, 1 mM EDTA and 0.5% NP-40) before being resolved by SDS-PAGE and immunoblotted with indicated antibodies.” left out
# IKZF1/3 = IKZF1/3 degradation, immunoblot of MM1S cells; assay type: cell-based
# Method: as §2, §3
# MT2 cells = assay: CCK-8 cell viability assay, MT2 cells; assay type: cell-based; conditions: UVA irradiation (365 nm) 15 min
# Method: as §4, §5
# [3] = UV-VIS absorption spectrum; assay type: physicochemical; conditions: in DMSO
# Method: as §1
# IKZF1 [4] = biological target: T3, IKZF1; assay: In vivo ubiquitination assay of IKZF1 by CRBN in HEK293T cells (Ni-NTA pull down); assay type: cell-based; parameters: expressed in transfected cells; host or cells: HEK293T; conditions: UVA irradiation (365 nm) 15 min
# Method: Briefly, HEK293T cells were transfected with Flag-CRBN, His-ubiquitin and HA-IKZF1 or GFP-BRD2 or GFP-BRD3. 24 hours after transfection, pomalidomide, opto-pomalidomide, dBET1 or opto-dBET1 were added to the cell culture together with 10 μM MG132 for 12 hours and cells were harvested in denatured buffer A (6 M guanidine-HCl, pH 8.0, 0.1 M Na2HPO4/NaH2PO4, 10 mM imidazole). After sonication, the ubiquitinated proteins were purified by incubation with Ni-NTA matrices for 3 hours at room temperature. The pull-down products were washed sequentially twice in buffer A, twice in buffer ANTI mixture (buffer A: buffer TI=1:3) and once in buffer TI (25 mM Tris-HCl, pH 6.8, 20 mM imidazole). The poly-ubiquitinated proteins were separated by SDS-PAGE for immunoblot analysis.
compound,measurement,setting,value
"COc1cc(COC(=O)N2C(=O)CCC(N3C(=O)c4cccc(N)c4C3=O)C2=O)c([N+](=O)[O-])cc1OC (stereo not drawn) [opto-pomalidomide, 4,5-dimethoxy-2-nitrobenzyl 3-(4-amino-1,3-dioxoisoindolin-2-yl)-2,6-dioxopiperidine-1-carboxylate]",uncaging (photolysis) by UVA irradiation in vitro,[1],could be induced to undergo photolysis by UVA irradiation in vitro
same,interaction between CRBN and IKZF1,CRBN and IKZF1; UVA irradiation (365 nm) 15 min,regained the ability to promote the binding between CRBN and IKZF 1
same,interaction between CRBN and IKZF1,CRBN and IKZF1; without UVA irradiation,ineffective in guiding the protein-protein interaction between CRBN and IKZF1
same,cell proliferation (CCK-8),MM1S cells,largely dependent on UVA irradiation; also recorded: inhibits MM1S cell proliferation in a dose-dependent manner
same,binding with CRBN,"CRBN; after UVA irradiation (365 nm, 30 min)",regained ability to bind with CRBN
same,binding with CRBN,CRBN; without UVA irradiation,ineffective to bind with CRBN in vitro
same,degradation of IKZF1,IKZF1 [2],mediate IKZF1 degradation in MT2 cells
same,degradation of IKZF1/3,"IKZF1/3; MM1S cells, UVA irradiation (365 nm) for different durations",occurred in a drug-dose and UVA-dose dependent manner
same,degradation of IKZF1/3,"IKZF1/3; MM1S-CRBN+/+ vs. MM1S-CRBN−/− cells, 12 hours, without UVA irradiation, opto-drug up to 10-fold excess",lost this function without UVA irradiation
same,cell proliferation (CCK-8),MT2 cells,inhibits MT2 cell proliferation in a dose-dependent manner
same,maximum in absorption of UV-VIS absorption spectrum,[3],364 nm
same,ubiquitination of IKZF1 by CRBN,IKZF1 [4],leading to CRBN-mediated IKZF1 ubiquitination
